Test results from the supplement of paper PMC11451515.

How the values were obtained:
Conditions in all cases: 48 h
NOMO1 [1] = experiment: cell viability relative to DMSO control; higher = less cytotoxic
Method in brief: (§1)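 Viability was expressed as a per-plate percentage of DMSO wells, with cell-free wells as background. Leukemia cells (NOMO1 or SEM at 500 cells/well, P12-Ichikawa at 1000 cells/well) were adapted for at least four passages in each medium and seeded in 1536-well plates (5 μl). Library compounds in DMSO were pin-dosed over an 11-point threefold series from 47 μM to 0.79 nM, and CellTiter-Glo One luminescence was read after 48 h at 37°C.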

P12-Ichikawa [2] = experiment: as above
Method in brief: as §1

SEM cells [3] = experiment: as above
Method in brief: as §1

NOMO1 [4] = experiment: AUC of viability dose-response curve (% viability x log10 dose units); higher = less sensitive
Method in brief: (§2)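 Leukemia cells adapted to each medium were seeded in 1536-well plates (500 or 1000 cells/well) and given library compounds in DMSO for 48 h at 37°C. The 11 threefold doses spanned 47 μM to 0.79 nM, and CellTiter-Glo One luminescence was normalised per plate to DMSO and cell-free wells before four-parameter log-logistic fitting on log10 dose. Area under the curve was integrated with the trapezoidal rule, scaling curves above full viability and removing curves that failed quality control.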

P12-Ichikawa [5] = experiment: as above
Method in brief: as §2

SEM cells [6] = experiment: as above
Method in brief: as §2

O=C(Nc1ccc(F)c(C(F)(F)F)c1)Nc1nnc(-c2ccncc2)s1
cell viability [%]
Conditions	NOMO1 [1]	P12-Ichikawa [2]	SEM cells [3]
HPLM + 10% dialyzed FBS, 0.000781 µM	112	125	–
HPLM + 10% dialyzed FBS, 0.00234 µM	120	121	–
HPLM + 10% dialyzed FBS, 0.00702 µM	127	119	–
HPLM + 10% dialyzed FBS, 0.0211 µM	130	115	–
HPLM + 10% dialyzed FBS, 0.0632 µM	134	129	–
HPLM + 10% dialyzed FBS, 0.19 µM	136	112	–
HPLM + 10% dialyzed FBS, 0.569 µM	118	120	–
HPLM + 10% dialyzed FBS, 1.71 µM	112	115	–
HPLM + 10% dialyzed FBS, 5.12 µM	118	119	–
HPLM + 10% dialyzed FBS, 15.4 µM	108	111	–
HPLM + 10% dialyzed FBS, 46.1 µM	111	100	–
RPMI 5 mM glucose + 10% FBS, 0.000781 µM	123	113	99.6
RPMI 5 mM glucose + 10% FBS, 0.00234 µM	113	127	112
RPMI 5 mM glucose + 10% FBS, 0.00702 µM	124	125	104
RPMI 5 mM glucose + 10% FBS, 0.0211 µM	106	109	103
RPMI 5 mM glucose + 10% FBS, 0.0632 µM	114	112	107
RPMI 5 mM glucose + 10% FBS, 0.19 µM	105	114	105
RPMI 5 mM glucose + 10% FBS, 0.569 µM	121	114	88.9
RPMI 5 mM glucose + 10% FBS, 1.71 µM	102	118	104
RPMI 5 mM glucose + 10% FBS, 5.12 µM	108	113	105
RPMI 5 mM glucose + 10% FBS, 15.4 µM	107	111	106
RPMI 5 mM glucose + 10% FBS, 46.1 µM	101	99.5	92.8
RPMI 5 mM glucose + 10% dialyzed FBS, 0.000781 µM	119	115	121
RPMI 5 mM glucose + 10% dialyzed FBS, 0.00234 µM	124	121	114
RPMI 5 mM glucose + 10% dialyzed FBS, 0.00702 µM	128	129	124
RPMI 5 mM glucose + 10% dialyzed FBS, 0.0211 µM	124	113	113
RPMI 5 mM glucose + 10% dialyzed FBS, 0.0632 µM	125	123	115
RPMI 5 mM glucose + 10% dialyzed FBS, 0.19 µM	131	120	117
RPMI 5 mM glucose + 10% dialyzed FBS, 0.569 µM	113	127	121
RPMI 5 mM glucose + 10% dialyzed FBS, 1.71 µM	128	115	104
RPMI 5 mM glucose + 10% dialyzed FBS, 5.12 µM	116	114	113
RPMI 5 mM glucose + 10% dialyzed FBS, 15.4 µM	114	106	125
RPMI 5 mM glucose + 10% dialyzed FBS, 46.1 µM	100	113	109

AUC of viability dose-response curve
Conditions	NOMO1 [4]	P12-Ichikawa [5]	SEM cells [6]
HPLM + 10% dialyzed FBS	456	469	467
RPMI 5 mM glucose + 10% FBS	444	451	464
RPMI 5 mM glucose + 10% dialyzed FBS	466	465	467

C[C@@H]1[C@H](O)[C@@H](C)/C=C/C=C/C=C/C=C/C=C/C=C/C=C/[C@H](O[C@@H]2O[C@H](C)[C@@H](O)[C@H](N)[C@@H]2O)C[C@@H]2O[C@](O)(C[C@@H](O)C[C@@H](O)[C@H](O)CC[C@@H](O)C[C@@H](O)CC(=O)O[C@H]1C)C[C@H](O)[C@H]2C(=O)O
cell viability [%]
Conditions	NOMO1 [1]	P12-Ichikawa [2]	SEM cells [3]
HPLM + 10% dialyzed FBS, 0.000781 µM	113	105	105
HPLM + 10% dialyzed FBS, 0.00234 µM	121	118	92.1
HPLM + 10% dialyzed FBS, 0.00702 µM	126	117	105
HPLM + 10% dialyzed FBS, 0.0211 µM	117	124	110
HPLM + 10% dialyzed FBS, 0.0632 µM	114	121	110
HPLM + 10% dialyzed FBS, 0.19 µM	116	126	110
HPLM + 10% dialyzed FBS, 0.569 µM	124	121	103
HPLM + 10% dialyzed FBS, 1.71 µM	123	129	114
HPLM + 10% dialyzed FBS, 5.12 µM	152	119	102
HPLM + 10% dialyzed FBS, 15.4 µM	138	127	105
HPLM + 10% dialyzed FBS, 46.1 µM	133	118	125
RPMI 5 mM glucose + 10% FBS, 0.000781 µM	108	119	113
RPMI 5 mM glucose + 10% FBS, 0.00234 µM	124	112	115
RPMI 5 mM glucose + 10% FBS, 0.00702 µM	112	118	110
RPMI 5 mM glucose + 10% FBS, 0.0211 µM	114	110	107
RPMI 5 mM glucose + 10% FBS, 0.0632 µM	111	119	105
RPMI 5 mM glucose + 10% FBS, 0.19 µM	115	123	112
RPMI 5 mM glucose + 10% FBS, 0.569 µM	133	134	112
RPMI 5 mM glucose + 10% FBS, 1.71 µM	119	127	108
RPMI 5 mM glucose + 10% FBS, 5.12 µM	125	122	104
RPMI 5 mM glucose + 10% FBS, 15.4 µM	118	125	121
RPMI 5 mM glucose + 10% FBS, 46.1 µM	135	123	118
RPMI 5 mM glucose + 10% dialyzed FBS, 0.000781 µM	–	98.6	110
RPMI 5 mM glucose + 10% dialyzed FBS, 0.00234 µM	–	113	103
RPMI 5 mM glucose + 10% dialyzed FBS, 0.00702 µM	–	119	108
RPMI 5 mM glucose + 10% dialyzed FBS, 0.0211 µM	–	110	93.8
RPMI 5 mM glucose + 10% dialyzed FBS, 0.0632 µM	–	130	114
RPMI 5 mM glucose + 10% dialyzed FBS, 0.19 µM	–	116	116
RPMI 5 mM glucose + 10% dialyzed FBS, 0.569 µM	–	123	105
RPMI 5 mM glucose + 10% dialyzed FBS, 1.71 µM	–	124	108
RPMI 5 mM glucose + 10% dialyzed FBS, 5.12 µM	–	124	109
RPMI 5 mM glucose + 10% dialyzed FBS, 15.4 µM	–	115	91.2
RPMI 5 mM glucose + 10% dialyzed FBS, 46.1 µM	–	124	127

AUC of viability dose-response curve
Conditions	NOMO1 [4]	P12-Ichikawa [5]	SEM cells [6]
HPLM + 10% dialyzed FBS	422	468	450
RPMI 5 mM glucose + 10% FBS	452	458	443
RPMI 5 mM glucose + 10% dialyzed FBS	461	465	465
